According to patent US20160046616A1, “NRF2 SMALL MOLECULE INHIBITORS FOR CANCER THERAPY” (THE JOHNS HOPKINS UNIVERSITY, priority 2013, published 2016):

Experiments:
[1] = test system: H1437 NRF2-ARE-Fluc stable cell line; assay: H1437 Nrf2 assay: NRF2-ARE firefly luciferase reporter gene assay; format: cell-based; conditions: Homo sapiens, NCI-H1437, H1437 NRF2-ARE-Fluc stable cell line; read-out: Potency of inhibition, H1437
Text: H1437 is another NSCLC cell line with LOF Keap1 activity and constitutive translocation of NRF2 into the nucleus. A firefly luciferase reporter construct driven by a minimal promoter of NRF2-specific ARE is stably expressed in the H1437 cells. This cell line was used as a confirmation assay to make sure hits identified from primary screening and that passed counterscreen assays worked in different cell types with a constitutively active NRF2 pathway (deficiency in Keap1).
This assay was very similar to the primary assay except that the cell line was changed. […] The final concentration of DMSO was maintained at 0.46%. Control compounds Budesonide and Staurosporine were both added at a concentration of 2 mM and Budesonide was also added as a 1:10 titration, starting at 200 μM, to achieve dose-response. After an 18-24 hour incubation at 37° C., 95% humidity, and 5% CO2, 1 μL of 5× CellTiter-Fluor non-lytic cell viability assay reagent (Promega, Madison Wis.) was added into the each well of the plates. The plates were then incubated for 30 minutes at room temperature before they were read on a ViewLux plate imager (Perkin Elmer, Waltham Mass.) using an excitation wavelength of 405 nm and an emission wavelength of 525 nm.
(§1) Representative compounds were assayed to assess the potency of inhibition in an A549 NRF2-ARE-Fluc stable cell line (A549 Nrf2 assay), in an H838 NRF2-ARE-Fluc stable cell line (H838 Nrf2 assay), and in an H1437 NRF2-ARE-Fluc stable cell line (H1437 Nrf2 assay) (see Table 3).

[2] = test system: A549 NRF2-ARE-Fluc stable cell line; assay: A549 Nrf2 assay: NRF2-ARE firefly luciferase reporter gene assay; format: cell-based; conditions: Homo sapiens, read-out: Potency of inhibition, A549
Text: A549, the parental cell line, is a non-small-cell lung cancer (NSCLC) cell line with loss-of-function (LOF) Keap1 activity, thus NRF2 transcription factor constitutively translocates into the nucleus to activate the expression of downstream target genes of NRF2. A firefly luciferase reporter (Fluc) construct driven by a minimal promoter of NRF2-specific anti-oxidant responsive element (ARE) is stably expressed in the A549 cells. Compounds that reduce the translocation of NRF2 into the nucleus or prevent the interaction between NRF2 and ARE will lead to a decrease in luciferase activity.
The final concentration of DMSO was maintained at 0.46%. Control compounds Budesonide and Staurosporine were both added at a concentration of 2 mM and Budesonide also was added as a 1:10 titration, starting at 200 μM, to achieve dose-response. After an 18-24 hour incubation at 37° C., 95% humidity, and 5% CO2, 1 μL of 5× CellTiter-Fluor non-lytic cell viability assay reagent (Promega, Madison, Wis.) was added into the each well of the plates. The plates were then incubated for 30 minutes at room temperature before they were read on a ViewLux plate imager (Perkin Elmer, Waltham, Mass.) using an excitation wavelength of 405 nm and an emission wavelength of 525 nm.
A cell based reporter assay approach was used for the identification of agents that could inhibit Nrf2 mediated gene expression (FIG. 1). A549-ARE-luciferase cells express the luciferase gene driven by a minimal promoter and an enhancer element containing an NRF2 binding site (Antioxidant Response Element, ARE).
as §1

In the case of `CNc1ccc(-c2cccc(NC(=O)Cc3ccccc3)n2)cc1` [Compound 64, N-(6-(4-(methylamino)phenyl)pyridin-2-yl)-2-phenylacetamide], the IC50 [1] is reported as > 25 µM and the IC50 [2] is reported as 5 to 25 µM.

`O=C(Nc1ncc(Cc2ccccc2F)s1)c1ccn(-c2ccccc2)n1` [Compound 215] was tested, and the IC50 [1] was < 5 µM and the IC50 [2] was < 5 µM.

`O=C(Nc1ccc(S(=O)(=O)N2CCCCC2)cc1)c1ccc(CN2CCc3ccccc3C2)cc1` [Compound 38] was tested, and the IC50 [1] was < 5 µM and the IC50 [2] was < 5 µM.

With `Cc1ccccc1C(=O)N1CCc2cc(-c3nc(NC(=O)Cc4ccc(OCCOCCOCCN)cc4)sc3C)ccc21` [Compound 239, 2-(4-(2-(2-(2-aminoethoxy)ethoxy)ethoxy)phenyl)-N-(5-methyl-4-(1-(2-methylbenzoyl)indolin-5-yl)thiazol-2-yl)acetamide] the IC50 [1] was 5 to 25 µM and the IC50 [2] was > 25 µM.

With `Cc1sc(NC(=O)Cc2ccc3c(c2)OCO3)nc1-c1ccc2c(c1)CCN2C(=O)c1ccccc1C(F)(F)F` [Compound 121] the IC50 [1] was > 25 µM and the IC50 [2] was < 5 µM.

Compound `Cc1ccccc1C(=O)N1CCc2cc(-c3ccc(NC(=O)Cc4ccccc4)cn3)ccc21` [Compound 101] has an IC50 [1] of 5 to 25 µM and an IC50 [2] of 5 to 25 µM.

With `COc1ccc(CC(=O)Nc2nc(-c3ccc4c(c3)CCN4C(=O)c3ccnn3C)c(C)s2)cc1` [Compound 197] the IC50 [1] was < 5 µM and the IC50 [2] was < 5 µM.

In the case of `Cc1ccccc1C(=O)N1CCc2cc(-c3nc(NC(=O)CC4CCN(C(=O)OC(C)(C)C)CC4)sc3C)ccc21` [Compound 60, tert-butyl 4-(2-((5-methyl-4-(1-(2-methylbenzoyl)indolin-5-yl)thiazol-2-yl)amino)-2-oxoethyl)piperidine-1-carboxylate], the IC50 [1] is reported as < 5 µM and the IC50 [2] is reported as < 5 µM.

`O=C(Nc1ncc(Cc2ccc(C(F)(F)F)cc2)s1)c1ccc(Br)o1` [Compound 98] gave an IC50 [1] of 5 to 25 µM and an IC50 [2] of 5 to 25 µM.

In the case of `O=C(Nc1cncc(Cc2ccccc2)c1)c1ccc(-c2cccc([N+](=O)[O-])c2)o1` [Compound 170], the IC50 [1] is reported as 5 to 25 µM and the IC50 [2] is reported as 5 to 25 µM.

Compound `Cc1ccccc1C(=O)N1CCc2cc(-c3nc(NC(=O)Cc4cccc(OCCOCCOCCN)c4)sc3C)ccc21` [Compound 238, 2-(3-(2-(2-(2-aminoethoxy)ethoxy)ethoxy)phenyl)-N-(5-methyl-4-(1-(2-methylbenzoyl)indolin-5-yl)thiazol-2-yl)acetamide] has an IC50 [1] of 5 to 25 µM and an IC50 [2] of 5 to 25 µM.

`O=C(Nc1ccc(S(=O)(=O)N2CCOCC2)cc1)c1cccc(CN2CCc3ccccc3C2)c1` [Compound 211] showed an IC50 [1] of 5 to 25 µM and an IC50 [2] of 5 to 25 µM.

For `Cc1ccccc1C(=O)N1CCc2cc(-c3nc(NC(=O)CC4CCCCC4)sc3C)ccc21` [Compound 79], the IC50 [1] was 5 to 25 µM and the IC50 [2] was < 5 µM.

In the case of `O=C(Cc1ccccc1)Nc1cncc(Cl)n1` [Compound 105, N-(6-chloropyrazin-2-yl)-2-phenylacetamide], the IC50 [1] is reported as > 25 µM and the IC50 [2] is reported as > 25 µM.

With `CCN(CC)S(=O)(=O)c1ccc(NC(=O)c2ccc(CN3CCc4ccccc4C3)cc2)cc1` [compound 153] the IC50 [1] was < 5 µM and the IC50 [2] was < 5 µM.

For `Cc1ccccc1C(=O)N1CCc2cc(-c3nc(NC(=O)CC4CCNCC4)sc3C)ccc21` [Compound 73], the IC50 [1] was 5 to 25 µM and the IC50 [2] was > 25 µM.

In the case of `Cc1ccccc1C(=O)N1CCc2cc(-c3nc(NC(=O)CN4CCNCC4)sc3C)ccc21` [Compound 70, N-(5-methyl-4-(1-(2-methylbenzoyl)indolin-5-yl)thiazol-2-yl)-2-(piperazin-1-yl)acetamide], the IC50 [1] is reported as > 25 µM and the IC50 [2] is reported as > 25 µM.

`Cc1ccccc1C(=O)N1CCc2cc(N3CCC(N)C3)ccc21` (centres unmarked) [Compound 93, (5-(3-aminopyrrolidin-1-yl)indolin-1-yl)(o-tolyl)methanone] was tested, and the IC50 [1] was > 25 µM and the IC50 [2] was 5 to 25 µM.

`Cc1ccccc1C(=O)n1ccc2cc(-c3cccc(NC(=O)Cc4ccccc4)n3)cnc21` [Compound 76] was tested, and the IC50 [1] was > 25 µM and the IC50 [2] was 5 to 25 µM.

With `COc1ccc(CC(=O)Nc2nc(-c3ccc4c(c3)CCN4C(=O)C3CC3C)c(C)s2)cc1` (centres unmarked) [Compound 208] the IC50 [1] was < 5 µM and the IC50 [2] was < 5 µM.

`O=C(Nc1ccc(OC(F)(F)F)cc1)c1ccc(CN2CCc3ccccc3C2)cc1` [compound 178] was tested, and the IC50 [1] was < 5 µM and the IC50 [2] was < 5 µM.

`Cc1ccccc1C(=O)N1CCc2cc(-c3nc(NC(=O)Cc4cccc(O)c4)sc3C)ccc21` [Compound 234, 2-(3-hydroxyphenyl)-N-(5-methyl-4-(1-(2-methylbenzoyl)indolin-5-yl)thiazol-2-yl)acetamide] showed an IC50 [1] of 5 to 25 µM and an IC50 [2] of 5 to 25 µM.

With `O=C(Nc1ccc(CN2CCOCC2)cc1)c1ccc(CN2CCc3ccccc3C2)cc1` [compound 163] the IC50 [1] was > 25 µM and the IC50 [2] was < 5 µM.

For `Cc1cccc(Cn2ccc(C(=O)Nc3ncc(Cc4ccc(C(F)(F)F)cc4)s3)n2)c1` [Compound 189], the IC50 [1] was < 5 µM and the IC50 [2] was 5 to 25 µM.

For `O=C(Nc1nc(Cc2ccccc2)cs1)c1ccc(-c2cccc([N+](=O)[O-])c2)o1` [Compound 85], the IC50 [1] was > 25 µM and the IC50 [2] was 5 to 25 µM.

With `Cc1ccccc1C(=O)N1CCc2cc(-c3cncc(NC(=O)Cc4ccccc4)n3)ccc21` [Compound 104] the IC50 [1] was 5 to 25 µM and the IC50 [2] was < 5 µM.

With `Cc1ccccc1S(=O)(=O)N1CCc2cc(-c3nc(NC(=O)Cc4ccccn4)sc3C)ccc21` [Compound 127] the IC50 [1] was 5 to 25 µM and the IC50 [2] was 5 to 25 µM.

In the case of `O=C(Nc1ccc([S+](=O)([O-])O)cc1)c1ccc(CN2CCc3ccccc3C2)cc1` [compound 156], the IC50 [1] is reported as > 25 µM and the IC50 [2] is reported as > 25 µM.

`O=C(Nc1cccc(Cc2ccccc2)c1)c1ccc(-c2cccc([N+](=O)[O-])c2)o1` [Compound 56] was tested, and the IC50 [1] was 5 to 25 µM and the IC50 [2] was 5 to 25 µM.

`O=C(Nc1ccc(S(=O)(=O)NC2CCOCC2)cc1)c1ccc(CN2CCc3ccccc3C2)cc1` [compound 176] was tested, and the IC50 [1] was 5 to 25 µM and the IC50 [2] was < 5 µM.

`CC1CN(S(=O)(=O)c2ccc(NC(=O)c3ccc(CN4CCc5ccccc5C4)cc3)cc2)CC(C)O1` (centres unmarked) [compound 155] was tested, and the IC50 [1] was < 5 µM and the IC50 [2] was < 5 µM.

For `CC(=O)N1CCN(S(=O)(=O)c2ccc(NC(=O)c3ccc(CN4CCc5ccccc5C4)cc3)cc2)CC1` [Compound 198], the IC50 [1] was < 5 µM and the IC50 [2] was < 5 µM.

With `O=C(CCc1ccccc1)Nc1ncc(Cc2ccc(C(F)(F)F)cc2)s1` [Compound 74] the IC50 [1] was > 25 µM and the IC50 [2] was > 25 µM.

With `O=C(Nc1ncc(Cc2ccc(C(F)(F)F)cc2)s1)c1ccc(-c2ccccc2)o1` [Compound 19] the IC50 [1] was > 25 µM and the IC50 [2] was 5 to 25 µM.

`Cc1ccccc1C(=O)N1CCc2cc(-c3nc(NC(=O)Cc4ccc(OCCOCCOCCNC(=O)CCCC[C@@H]5SC[C@@H]6NC(=O)N[C@@H]65)cc4)sc3C)ccc21` [Compound 241] was tested, and the IC50 [1] was 5 to 25 µM and the IC50 [2] was > 25 µM.

`Cc1sc(NC(=O)Cc2ccc3c(c2)OCO3)nc1-c1ccc2c(c1)CCN2C(=O)c1cncn1C` [Compound 161] was tested, and the IC50 [1] was < 5 µM and the IC50 [2] was < 5 µM.

For `Cc1ccccc1C(=O)N1CCc2cc(-c3nc(NS(=O)(=O)Cc4ccccc4)sc3C)ccc21` [Compound 109], the IC50 [1] was 5 to 25 µM and the IC50 [2] was 5 to 25 µM.

With `Cc1ccccc1C(=O)N1CCc2cc(-c3nc(NC(=O)Cc4ccc5c(c4)OCCO5)sc3C)ccc21` [Compound 5] the IC50 [1] was < 5 µM and the IC50 [2] was 5 to 25 µM.

With `O=C(Nc1ncc(Cc2cccc(C(F)(F)F)c2)s1)c1ccc(-c2cccc([N+](=O)[O-])c2)o1` [Compound 20] the IC50 [1] was < 5 µM and the IC50 [2] was 5 to 25 µM.

With `Cc1ccccc1C(=O)N1CCc2cc(N3CCCC(N)C3)ccc21` (centres unmarked) [Compound 94, (5-(3-aminopiperidin-1-yl)indolin-1-yl)(o-tolyl)methanone] the IC50 [1] was > 25 µM and the IC50 [2] was > 25 µM.
